Measured values from US8916595B2, “Plant disease controlling composition and method for controlling plant disease” (Sumitomo Chemical Company, Limited, priority 2010, dated 2014).

Tested on: gray mold fungus (Botrytis cinerea)
Assay: Cucumber leaf disk preventive test against gray mold fungus (spray inoculation, onset area rate)
Assay type: in vivo
Settings: single compound, 15° C., four days
Procedure: True leaf of cucumber is punched out with cork borer to 13 mm in diameter to prepare a leaf disk. In 24 well microwell plate that is dispensed with 1 ml 0.8% water agar, the leaf disk is placed such that the upper side of the leaf is in an upward direction. Thereto is added 20 micro liter a testing solution prepared by mixing a dimethyl sulfoxide solution of the present compound (racemate) and a dimethyl sulfoxide solution of benthiavalicarb to a predetermined concentration to treat the leaf disk.
After confirming that the testing medical solution is dried, conidium of gray mold fungus (Botrytis cinerea) is suspended into potato dextrose broth (DIFCO) in a density of about 10^5 conidium/mL and is then subjected to a spray inoculation. After leaving to stand the leaf disk in a growth chamber set up at 15° C. for four days, an onset area on the leaf is measured and then calculated an onset area rate (hereinafter, referred to as an onset area rate of treated group).
The same operation is carried out with 20 micro liter water instead of 20 micro liter a testing medicine solution to calculate an onset area rate (hereinafter, referred to an onset area rate of non-treated group).
A preventive value is calculated from the above onset area rate of treated group and the onset area rate of non-treated group by the following equation: Preventive value(%)=100×(A−B)/A
A: an onset area rate of treated group
B: an onset area rate of non-treated group
The same operations as described in Test Example 1 are carried out with iprovalicarb instead of benthiavalicarb, so as to calculate a preventive value.
Also for comparison, the same operations as described in Test Example 1 are carried out with the exception that the testing medicine solution is substituted with a predetermined concentration of each dimethyl sulfoxide solution of the present compound (racemate) or iprovalicarb, so as to calculate respective preventive values.
For comparison, the same operations as described in Test Example 1 are carried out with the exception that the testing medicine solution is substituted with a predetermined concentration of a dimethyl sulfoxide solution of benthiavalicarb, so as to calculate a preventive value.

[1] = treatment concentration 0.5 ppm
[2] = treatment concentration 5.0 ppm

Compound: Cc1ccc(C(C)NC(=O)[C@@H](NC(=O)OC(C)C)C(C)C)cc1 (stereo partly shown) [iprovalicarb]
- preventive value (%) [1]: 0%
- preventive value (%) [2]: 15%

Compound: CC(C)[C@H](NC(=O)O)C(=O)N[C@H](C)c1nc2ccc(F)cc2s1 [benthiavalicarb]
- preventive value (%) [1]: 0%
- preventive value (%) [2]: 15%
